Measured values as given in US20240408114A1, “METHODS FOR PREVENTING AND TREATING ACUTE KIDNEY INJURY” (The Johns Hopkins University, priority 2021, published 2024).

Columns and labels:
kidney T cells = assay: T cells from post-ischemic kidneys, spectral flow cytometry; assay type: in vivo, mouse
Method: Mice were treated with 1.83 mg/kg of JHU083 or vehicle every other day via intraperitoneal injection and underwent bilateral IRI surgery on day 7 after the initial injection. […] Hollinger et al., 2020. Mice were followed up until 72 h after IRI, and T cells isolated from post-ischemic kidneys were studied (FIG. 14A).
KMNCs were isolated according to our previously described Percoll density gradient protocol. Ascon et al., 2006. Briefly, decapsulated kidneys were immersed and incubated in collagenase D (2 mg/mL; Sigma-Aldrich) solution for 30 min at 37° C. Samples were strained through 70 µm cell strainer (BD Bioscience, Franklin Lakes, NJ), washed, and resuspended in 40% Percoll (GE Healthcare, Chicago, IL) followed by gentle overlaying onto 80% Percoll. After centrifugation at 1,500 g for 30 min in brake off mode at room temperature, KMNCs were collected from interface between 40% and 80% Percoll. Spleens were strained through 40 µm cell strainer (BD Bioscience) and incubated with ammonium-chloride-potassium lysis buffer (Quality Biological, Gaithersburg, MD) for 3 min. Collected cells were washed and resuspended with Roswell Park Memorial Institute (RPMI) 1640 media (Thermo Fisher Scientific, Waltham, MA) containing 5% fetal bovine serum (FBS, Thermo Fisher Scientific). Cells were counted on hemocytometer using trypan blue exclusion under a microscope.
Cells were washed once with phosphate buffered saline (PBS) and stained with viability dye Zombie NIR Fixable Viability (BioLegend, San Diego, CA) for 15 min at room temperature. After washing with Cell Staining Buffer (BioLegend), cells were preincubated with anti-CD16/CD32 Fc receptor blocking antibody (S17011E, BioLegend) for 15 min to prevent nonspecific antibody binding. Subsequently, surface staining was performed in 50 μL of BD horizon™ Brilliant Stain buffer and surface staining antibody cocktail for 30 min at 4° C.: Pacific blue anti-CD44 (IM7, BioLegend), BV510 anti-CD8 (53-6.7, BioLegend), BV570 anti-CD45 (30-F11, BioLegend), BV605 anti-CD69 (H1.2F3, BioLegend), BV650 anti-NK1.1 (PK136, BioLegend), BV711 anti-PD1 (29F.1A12, BioLegend), BV785 anti-TCRβ (H57-597, BioLegend), PE-Cy5.5 anti-CD25 (PC61.5, Thermo Fisher Scientific), APC-R700 anti-CD62L (MEL-14, BD Bioscience), and APC-Fire810 anti-CD4 (GK1.5, BioLegend). Cells were fixed and permeabilized with Foxp3/Transcription Factor Staining kit (Thermo Fisher Scientific) for 30 min at room temperature and washed with permeabilization/wash buffer (Thermo Fisher Scientific). Intracellular staining was conducted in 50 μL of permeabilization/wash buffer with intracellular staining antibody cocktail for 45 min at room temperature: BV421 anti-Ki67 (16A8, BioLegend), Alexa Fluor 488 anti-CPT1a (8F6AE9, Abcam, Cambridge, UK), Alexa Fluor 532 anti-VDAC1 (20B12AF2, Abcam), PerCP-efluor 710 anti-FoxP3 (FJK-16S, Thermo Fisher Scientific), PE anti-GLUT1 (EPR3915, Abcam), Alexa Fluor 594 anti-pS6 (D68F8, Cell Signaling, Danvers, MA), PE-Cy5 anti-HKII (EPR20839, Abcam), PE-Cy7 anti-H3K27me3 (C36B11, Cell Signaling), and Alexa Fluor 647 anti-Tomm20 (EPR15581-54, Abcam). After staining, cells were washed with permeabilization/wash buffer then resuspended in Cell Staining Buffer. Samples were analyzed by 4-laser Aurora spectral flow cytometer (Cytek, Fremont, CA).
(§1) Glutamine antagonist, JHU083 was synthesized as previously described, Rais et al., 2016, and dissolved in 50 mM […] 4-(2-hydroxyethyl)-1-piperazineethanesulfonic acid (HEPES) buffered 0.9% saline. Aliquot stocks were stored at −80° C. and thawed right before injection. Before the IRI surgery or cisplatin injection, mice were administered 1.83 mg/kg JHU083 (equivalent to 1 mg/kg DON) or vehicle (50 mM HEPES buffered 0.9% saline) every other day via intraperitoneal injection. Following 4 consecutive dosages, mice underwent IRI surgery or cisplatin injection. The last additional dose was given at 24 h after IRI or cisplatin injection. […]

[1] = tested on: cisplatin-induced AKI in mice; assay: Cisplatin-induced (nephrotoxic) AKI model: kidney function and histology; assay type: in vivo, mouse
Method: Given the significant protective outcomes in ischemic AKI, we subsequently tested the effect of glutamine blockade on a nephrotoxic AKI model, which is another common etiology of clinical AKI. After pretreatment with JHU083 or vehicle, 25 mg/kg of cisplatin was injected intraperitoneally. T cells were isolated and studied after 72 h after cisplatin treatment (FIG. 16A).
Cisplatin (cis-diammineplatinum II dichloride; Sigma-Aldrich, St. Louis, MO) was freshly dissolved into 0.9% saline (1 mg/mL) on the day of injection. The dissolved solution was incubated in water bath at 40° C. for 10 min to achieve complete dissolution. A single 25 mg/kg dose of cisplatin was injected intraperitoneally.
Blood samples were obtained at 0, 24, 48, and 72 h after IRI or cisplatin injection through tail vein collection. Plasma creatinine concentration was measured by Cobas Mira Plus automated analyzer system (Roche, Indianapolis, IN) with creatinine reagent (Pointe Scientific Inc, Canton, MI).
At 24 h after IRI and 72 h after cisplatin injection, mice were anesthetized with ketamine (130 mg/kg; VetOne, Boise, ID) and xylazine (7 mg/kg; Akorn) intraperitoneal injection. After exsanguination, kidneys were collected and fixed with 10% buffered formalin followed by paraffin embedding. Tissue sections were stained with hematoxylin and eosin. A renal pathologist scored necrotic tubules in a blinded fashion.
as §1

[2] = post-ischemic kidneys, vs vehicle

CCOC(=O)[C@H](CCC(=O)C=[N+]=[N-])NC(=O)[C@@H](N)CC(C)C [JHU083] was tested, and the “expression of CD69, CD44, and Ki67 on kidney CD4+ and CD8+ T cells” value (kidney T cells; Example 1, FIG. 8, after ischemic AKI, vs vehicle control group) was “reduced expression”, the “CD69+ among kidney CD8+ T cells” value (kidney T cells; post-ischemic kidneys, vehicle 24.9±2.3, P=0.019) was 17.8±1.4% and the “CD62L+ among kidney CD4+ T cells” value (kidney T cells; post-ischemic kidneys, vehicle 29.0±1.6, P<0.001) was 42.8±2.2. For the same compound, the “CD62L+ among kidney CD8+ T cells” value (kidney T cells; post-ischemic kidneys, vehicle 44.9±3.2, P<0.001) was 63.6±2.8, the “Ki67+ among kidney CD4+ T cells” value (kidney T cells; post-ischemic kidneys, vehicle 58.7±2.9, P=0.035) was 50.6±2.1% and the “CD69+ among kidney DN T cells” value (kidney T cells; post-ischemic kidneys, vehicle 60.6±2.5, P=0.005) was 72.1±2.5%. The “Ki67+ among kidney CD8+ T cells” value (kidney T cells; post-ischemic kidneys, vehicle 61.2±4.2, P=0.043) was 48.4±4.1%, the “CD44+ among kidney CD8+ T cells” value (kidney T cells; post-ischemic kidneys, vehicle 61.4±10.7, P=0.001) was 40.9±11.2% and the “CD44+ among kidney CD4+ T cells” value (kidney T cells; post-ischemic kidneys, vehicle 67.5±1.7, P<0.001) was 56.3±1.9%. The “Ki67+ among kidney DN T cells” value (kidney T cells; post-ischemic kidneys, vehicle 78.7±3.0, P=0.001) was 91.2±1.1%, the “CD44+ among kidney DN T cells” value (kidney T cells; post-ischemic kidneys, vehicle 94.4±2.4, P=0.038) was 96.4±1.2% and the “levels of the other metabolic enzymes in kidney T cells” value (kidney T cells; [2]) was “comparable between groups”. The “proportions of CD4+, CD8+, DN T cells among total T cells and Tregs among CD4+ T cells” value (kidney T cells; [2]) was “comparable between groups”, the “pS6 and HKII expression in kidney T cells” value (kidney T cells; post-ischemic kidneys, vs vehicle-treated mice) was “enhanced” and the “number of total T cells in post-ischemic kidneys” value (kidney T cells; vs vehicle) was “reduced”. The “plasma creatinine at 72 h” value ([1]; 72 h after cisplatin 25 mg/kg i.p., JHU083 pretreatment, vehicle 2.28±0.34, P=0.016) was 1.17 ± 0.24 mg/dL, the medullary necrotic tubules ([1]; 72 h after cisplatin, vehicle 57.1±3.7, P<0.001) was 19.9±4.5% and the cortical necrotic tubules ([1]; 72 h after cisplatin, vehicle 58.1±4.9, P=0.243) was 20.9±7.0%.
